The numbers were not newly measured in patent publication US11229617B2, “Topical anti-inflammatory compositions” (Achelios Therapeutics, Inc., priority 2016, dated 2022), which cites them from elsewhere.

Turning to `CCCCCC(=O)O` [hexanoic (caproic) acid], the pKa is recorded as 4.88. As for `CC(C)(O)CC(=O)O` [hydroxymethyl-butyric acid], the pKa was 4.55.

A word on the pKa: it is the negative logarithm of the acid dissociation constant.
